# Results reported in US10336775B2 (Asceneuron SA, priority 2014, dated 2019).
# Target: His-Tagged hOGA (human O-GlcNAcase) (Homo sapiens (Human), UniProt O60502)
# Assay: Human O-GlcNAcase enzyme inhibition assay (Example B01)
# Type: biochemical
# Conditions: OGA IC50 (M), OGA enzyme inhibition assay; activity range classes defined in μM
# Chain of His-Tagged hOGA (human O-GlcNAcase) (O60502 whole entry): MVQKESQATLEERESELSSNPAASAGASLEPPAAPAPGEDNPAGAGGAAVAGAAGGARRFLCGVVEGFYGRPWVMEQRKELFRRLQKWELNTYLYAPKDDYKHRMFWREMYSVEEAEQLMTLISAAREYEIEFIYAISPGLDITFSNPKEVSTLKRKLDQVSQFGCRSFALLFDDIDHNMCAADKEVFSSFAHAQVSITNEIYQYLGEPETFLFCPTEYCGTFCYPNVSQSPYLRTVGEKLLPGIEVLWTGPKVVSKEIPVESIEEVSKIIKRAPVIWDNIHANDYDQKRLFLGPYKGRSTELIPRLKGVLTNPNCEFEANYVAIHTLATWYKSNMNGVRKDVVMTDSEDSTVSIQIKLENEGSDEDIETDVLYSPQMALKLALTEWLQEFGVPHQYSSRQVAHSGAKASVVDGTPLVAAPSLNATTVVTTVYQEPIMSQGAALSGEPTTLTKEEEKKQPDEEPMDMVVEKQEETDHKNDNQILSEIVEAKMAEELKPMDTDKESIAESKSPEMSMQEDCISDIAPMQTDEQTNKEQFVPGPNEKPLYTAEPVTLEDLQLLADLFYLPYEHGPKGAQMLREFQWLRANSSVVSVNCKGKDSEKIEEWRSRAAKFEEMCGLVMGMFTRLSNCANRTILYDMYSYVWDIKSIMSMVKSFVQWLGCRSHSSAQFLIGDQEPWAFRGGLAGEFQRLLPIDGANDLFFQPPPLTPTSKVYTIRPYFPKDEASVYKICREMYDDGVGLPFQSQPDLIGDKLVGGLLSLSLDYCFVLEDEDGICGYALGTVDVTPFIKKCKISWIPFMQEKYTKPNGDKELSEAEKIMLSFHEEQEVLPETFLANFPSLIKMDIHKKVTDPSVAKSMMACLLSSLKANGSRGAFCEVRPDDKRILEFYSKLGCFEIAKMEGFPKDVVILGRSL
row,Structure (SMILES),IC50
1,"Cc1csc(N2CCN(C(C)c3ccc4c(c3)OCO4)CC2)n1 (racemic) [Example 144, 1-[1-(1,3-benzodioxol-5-yl)ethyl]-4-(4-methyl-2-thiazolyl)-piperazine]",2e-07 to 1e-06 M
2,"CC(=O)Nc1cnc(N2CCN(C(C)c3ccc4c(c3)OCO4)CC2)nc1 (single isomer, unassigned) [Example 78]",< 5e-08 M
3,"CC(c1ccc2cccnc2c1)N1CCN(c2ncccn2)CC1 (racemic) [Example 91, 7-(1-(4-(pyrimidin-2-yl)piperazin-1-yl)ethyl)quinoline]",5e-08 to 2e-07 M

# Same assay, conditions: OGA enzyme inhibition assay; activity range classes defined in μM; read-out: OGA IC50
row,Structure (SMILES),IC50
1,"Cc1ccc(N2CCN(C(C)c3ccc4c(c3)OCO4)CC2)nc1 (racemic) [Example 14, 1-(1-(Benzo[d][1,3]dioxol-5-yl)ethyl)-4-(5-methylpyridin-2-yl)piperazine]",2e-07 to 1e-06 M
2,CC(=O)Nc1nnc(N2CCN(C(C)c3ccc4cc(Cl)cnc4c3)CC2)s1 (racemic) [Example 124],1e-06 to 1e-05 M
3,"CC(=O)Nc1nnc(N2CCN(C(C)c3ccc4cccnc4c3)CC2)s1 (racemic) [Example 115, N-(5-(4-(1-(quinolin-7-yl)ethyl)piperazin-1-yl)-1,3,4-thiadiazol-2-yl)acetamide]",5e-08 to 2e-07 M
4,"CC(c1ccc2nccnc2c1)N1CCN(c2ncccn2)CC1 (racemic) [Example 83, 6-(1-(4-(pyrimidin-2-yl)piperazin-1-yl)ethyl)quinoxaline]",5e-08 to 2e-07 M
5,"CC(=O)Nc1cnc(N2CCN(C(C)c3cccc4cccnc34)CC2)nc1 (racemic) [Example 127, N-(2-(4-(1-(quinolin-8-yl)ethyl)piperazin-1-yl)pyrimidin-5-yl)acetamide]",1e-06 to 1e-05 M
6,"CC(c1ccc2nccnc2c1)N1CCN(c2nc3ccccc3s2)CC1 (racemic) [Example 135, 2-(4-(1-(quinoxalin-6-yl)ethyl)piperazin-1-yl)benzo[d]thiazole]",1e-06 to 1e-05 M
7,"C[C@@H](c1ccc2c(c1)OCO2)N1CCN(c2ncc(C3(O)CCCC3)cn2)CC1 [Example 181, (S)-1-(2-(4-(1-(benzo[d][1,3]dioxol-5-yl)ethyl)piperazin-1-yl)pyrimidin-5-yl)cyclopentan-1-ol]",< 5e-08 M
8,"CC(c1ccc2c(c1)OCO2)N1CCN(c2nc(CO)cs2)CC1 (racemic) [Example 29, (2-(4-(1-(Benzo[d][1,3]dioxol-5-yl)ethyl)piperazin-1-yl)thiazol-4-yl)methanol]",5e-08 to 2e-07 M
9,"CC(c1ccc2c(c1)OCO2)N1CCN(c2ncc3cc[nH]c3n2)CC1 (racemic) [Example 113, 2-(4-(1-(benzo[d][1,3]dioxol-5-yl)ethyl)piperazin-1-yl)-7H-pyrrolo[2,3-d]pyrimidine]",5e-08 to 2e-07 M
10,"CNC(=O)c1csc(N2CCN(C(C)c3ccc4c(c3)OCO4)CC2)n1 (racemic) [Example 30, 2-(4-(1-(Benzo[d][1,3]dioxol-5-yl)ethyl)piperazin-1-yl)-N-methylthiazole-4-carboxamide]",5e-08 to 2e-07 M
11,"CC(=O)Nc1nnc(N2CCN(C(C)c3ccc4ncsc4c3)CC2)s1 (racemic) [Example 179, N-(5-(4-(1-(benzo[d]thiazol-6-yl)ethyl)piperazin-1-yl)-1,3,4-thiadiazol-2-yl)acetamide]",1e-06 to 1e-05 M
12,"CC(c1ccc2nccnc2c1)N1CCN(c2nc3c(s2)C(=O)NCC3)CC1 (racemic) [Example 178, 2-(4-(1-(quinoxalin-6-yl)ethyl)piperazin-1-yl)-6,7-dihydrothiazolo[5,4-c]pyridin-4(5H)-one]",2e-07 to 1e-06 M
13,"CC(c1ccc2c(c1)OCO2)N1CCN(c2nnc(N)s2)CC1 (racemic) [Example 41, 5-(4-(1-(benzo[d][1,3]dioxol-5-yl)ethyl)piperazin-1-yl)-1,3,4-thiadiazol-2-amine]",5e-08 to 2e-07 M
14,"CC(=O)Nc1nnc(N2CCN(C(C)c3ccc4c(Cl)ccnc4c3)CC2)s1 (racemic) [Example 100, N-(5-(4-(1-(4-chloroquinolin-7-yl)ethyl)piperazin-1-yl)-1,3,4-thiadiazol-2-yl)acetamide]",2e-07 to 1e-06 M
15,"CC(c1ccc2c(c1)OCO2)N1CCN(c2ccccn2)CC1 (racemic) [Example 10, 1-(1-(Benzo[d][1,3]dioxol-5-yl)ethyl)-4-(pyridin-2-yl)piperazine]",2e-07 to 1e-06 M
16,"Cc1cnc(N2CCN(C(C)c3ccc4nccnc4c3)CC2)nc1 (racemic) [Example 102, 6-(1-(4-(5-Methylpyrimidin-2-yl)piperazin-1-yl)ethyl)quinoxaline]",5e-08 to 2e-07 M
17,"CC(O)c1cnc(N2CCN([C@@H](C)c3ccc4c(c3)OCO4)CC2)nc1 (stereo partly drawn) [Example 168, 1-(2-(4-((S)-1-(benzo[d][1,3]dioxol-5-yl)ethyl)piperazin-1-yl)pyrimidin-5-yl)ethan-1-ol]",< 5e-08 M

row,Structure (SMILES),IC50
1,"CCOC(=O)c1csc(N2CCN(C(C)c3ccc4c(c3)OCO4)CC2)n1 (racemic) [Example 17, Ethyl 2-(4-(1-(benzo[d][1,3]dioxol-5-yl)ethyl)piperazin-1-yl)thiazole-4-carboxylate]",2e-07 to 1e-06 M
2,"CC(=O)Nc1nnc(N2CCN(C(C)c3ccc4scnc4c3)CC2)s1 (single isomer, unassigned) [Example 133, (S)-N-(5-(4-(1-(benzo[d]thiazol-5-yl)ethyl)piperazin-1-yl)-1,3,4-thiadiazol-2-yl)acetamide or ((R)-N-(5-(4-(1-(benzo[d]thiazol-5-yl)ethyl)piperazin-1-yl)-1,3,4-thiadiazol-2-yl)acetamide]",< 5e-08 M
3,"CC(c1ccc2c(c1)OCO2)N1CCN(c2nc(C(F)(F)F)cs2)CC1 (racemic) [Example 13, 2-(4-(1-(Benzo[d][1,3]dioxol-5-yl)ethyl)piperazin-1-yl)-4-(trifluoromethyl)thiazole]",2e-07 to 1e-06 M
4,"CC(=O)Nc1ccnc(N2CCN(C(C)c3ccc4c(c3)OCO4)CC2)n1 (racemic) [Example 23, N-(2-(4-(1-(Benzo[d][1,3]dioxol-5-yl)ethyl)piperazin-1-yl)pyrimidin-4-yl)acetamide]",5e-08 to 2e-07 M
5,"Cc1cccc(N2CCN(C(C)c3ccc4c(c3)OCO4)CC2)n1 (racemic) [Example 21, 1-(1-(Benzo[d][1,3]dioxol-5-yl)ethyl)-4-(6-methylpyridin-2-yl)piperazine]",2e-07 to 1e-06 M
6,"CCCC(=O)Nc1nnc(N2CCN(C(C)c3ccc4c(c3)OCO4)CC2)s1 (racemic) [Example 106, N-(5-(4-(1-(benzo[d][1,3]dioxol-5-yl)ethyl)piperazin-1-yl)-1,3,4-thiadiazol-2-yl)butyramide]",< 5e-08 M
7,"CC(c1ccc2c(c1)OCO2)N1CCN(c2ncc(CO)cn2)CC1 (racemic) [Example 52, (2-(4-(1-(benzo[d][1,3]dioxol-5-yl)ethyl)piperazin-1-yl)pyrimidin-5-yl)methanol]",< 5e-08 M
8,"C[C@@H](c1ccc2c(c1)OCO2)N1CCN(c2nc3ccccc3s2)CC1 [Example 136, (S)-2-(4-(1-(benzo[d][1,3]dioxol-5-yl)ethyl)piperazin-1-yl)benzo[d]thiazole]",2e-07 to 1e-06 M
9,"CC(c1ccc2c(c1)OCO2)N1CCN(c2nc3c(s2)C(=O)NCC3)CC1 (racemic) [Example 148, 2-(4-(1-(benzo[d][1,3]dioxol-5-yl)ethyl)piperazin-1-yl)-6,7-dihydrothiazolo[5,4-c]pyridin-4(5H)-one]",5e-08 to 2e-07 M
10,"CC(=O)c1cnc(N2CCN([C@@H](C)c3ccc4c(c3)OCO4)CC2)nc1 [Example 167, (S)-1-(2-(4-(1-(benzo[d][1,3]dioxol-5-yl)ethyl)piperazin-1-yl)pyrimidin-5-yl)ethan-1-one]",< 5e-08 M
11,"CC(c1ccc2c(c1)OCO2)N1CCN(c2nc(C(N)=O)cs2)CC1 (racemic) [Example 35, 2-(4-(1-(Benzo[d][1,3]dioxol-5-yl)ethyl)piperazin-1-yl)thiazole-4-carboxamide]",5e-08 to 2e-07 M
12,"C[C@@H](c1ccc2c(c1)OCO2)N1CCN(c2nc3ccccc3[nH]2)CC1 [Example 138, (S)-2-(4-(1-(benzo[d][1,3]dioxol-5-yl)ethyl)piperazin-1-yl)-1H-benzo[d]imidazole]",1e-06 to 1e-05 M
13,"CSc1ccc(N2CCN([C@@H](C)c3ccc4c(c3)OCO4)CC2)nc1 [Example 192, (S)-1-(1-(benzo[d][1,3]dioxol-5-yl)ethyl)-4-(5-(methylthio)pyridin-2-yl)piperazine]",< 5e-08 M
14,"CCNc1nnc(N2CCN([C@@H](C)c3ccc4c(c3)OCO4)CC2)s1 [Example 141, (S)-5-(4-(1-(benzo[d][1,3]dioxol-5-yl)ethyl)piperazin-1-yl)-N-ethyl-1,3,4-thiadiazol-2-amine]",5e-08 to 2e-07 M
15,"CC(=O)Nc1cnc(N2CCN(C(C)c3ccc4sc(C)nc4c3)CC2)nc1 (racemic) [Example 169, N-(2-(4-(1-(2-methylbenzo[d]thiazol-5-yl)ethyl)piperazin-1-yl)pyrimidin-5-yl)acetamide]",< 5e-08 M
16,"Cc1ncc(N2CCN(C(C)c3ccc4c(c3)OCO4)CC2)s1 (racemic) [Example 37, 5-(4-(1-(Benzo[d][1,3]dioxol-5-yl)ethyl)piperazin-1-yl)-2-methylthiazole]",< 5e-08 M
17,"C[C@@H](c1ccc2c(c1)OCO2)N1CCN(c2ncc(C3(O)CCOC3)cn2)CC1 (stereo partly drawn) [Example 189, 3-(2-(4-((S)-1-(benzo[d][1,3]dioxol-5-yl)ethyl)piperazin-1-yl)pyrimidin-5-yl)tetrahydrofuran-3-ol]",< 5e-08 M

# Same assay, conditions: measured according to Example B01
row,Structure (SMILES),OGA inhibitor activity (in words)
1,"C[C@@H](c1ccc2c(c1)OCO2)N1CCN(c2ncc(C3(O)CCCC3)cn2)CC1 [Example 181, (S)-1-(2-(4-(1-(benzo[d][1,3]dioxol-5-yl)ethyl)piperazin-1-yl)pyrimidin-5-yl)cyclopentan-1-ol]",very potent OGA inhibitors
2,"CC(c1ccc(Cl)cc1)N1CCN(c2ccc3ccccc3n2)CC1 (centres unmarked) [compound 5 of WO 99/21850, reference compound]",not active as OGA inhibitors
3,"CC(O)c1cnc(N2CCN([C@@H](C)c3ccc4c(c3)OCO4)CC2)nc1 (stereo partly drawn) [Example 168, 1-(2-(4-((S)-1-(benzo[d][1,3]dioxol-5-yl)ethyl)piperazin-1-yl)pyrimidin-5-yl)ethan-1-ol]",very potent OGA inhibitors
4,"CC(c1ccc2c(c1)OCO2)N1CCN(c2ncc(CO)cn2)CC1 (racemic) [Example 52, (2-(4-(1-(benzo[d][1,3]dioxol-5-yl)ethyl)piperazin-1-yl)pyrimidin-5-yl)methanol]",very potent OGA inhibitors
5,"Cc1ncc(N2CCN(C(C)c3ccc4c(c3)OCO4)CC2)s1 (racemic) [Example 37, 5-(4-(1-(Benzo[d][1,3]dioxol-5-yl)ethyl)piperazin-1-yl)-2-methylthiazole]",very potent OGA inhibitors
6,"CNC(=O)c1csc(N2CCN(C(C)c3ccc4c(c3)OCO4)CC2)n1 (single isomer, unassigned) [Example 56]",very potent OGA inhibitors

# Same assay, conditions: read-out: OGA IC50
row,Structure (SMILES),IC50
1,"c1cnc(N2CCN(Cc3ccc4c(c3)OCO4)CC2)nc1 [U.S. Pat. No. 3,299,067 (Example 1), reference compound]",9.98e-07 M
